In patent US20240383910A1, “SMALL MOLECULE BTK DEGRADERS AND METHODS OF USE THEREOF” (Baylor College of Medicine, priority 2023, published 2024):

Key:
[1] = target: T1, IKZF1 (Homo sapiens, UniProt Q13422+Q96SW2); assay: Western blotting for IKZF1 in Mino cells; assay type: cell-based; settings: 24 h, Western blot, read-out: IKZF1-WB Endpoint DC50
T1 construct: host or cells: Mino
Protocol: (§1) Panel a. […] Panel b. […] Panel c. […] Panel d-e. […] Panel g.
After treatment, whole cell lysates for immunoblotting were prepared by pelleting Mino cells at 4° C. and 200×g for 5 minutes. […] Imaging was performed using the ECL Prime chemiluminescent Western blot detection reagents (Kindle Biosciences, Cat. No. R1100) by visualization of the blots with an Imager (Kindle Biosciences, Cat. No. D1001). All Western blots were subsequently processed and quantified with Imager software ImageJ and protein level was normalized to the B-actin loading controls.

[2] = target: T1, IKZF1; assay: TMT-based quantitative proteomics in Mino cells, IKZF1; assay type: cell-based; settings: 200 nM, 4 h
Protocol: as §1
(§2) Two million of Mino cells were treated with DMSO or 200 nM of PS-2 for 4 hours in biological triplicates and cells were harvested by centrifugation (200×g, 4° C., 5 min). Lysis buffer (100 mM Triethylammonium bicarbonate (TEAB, Thermo Fisher Scientific, Cat. No. 90114), 2% SDS) was added to the cell pellets and homogenized with a microtip sonicator (Branson) to achieve a cell lysate with a protein concentration of ˜2 mg mL^−1. Protein concentration was determined using BCA assay (Pierce, Cat. No. 23225) and normalized to 1 mg mL^−1. One hundred μg of protein for each sample were reduced and alkylated with 10 mM Tris(2-carboxyethyl) phosphine hydrochloride (TCEP, Sigma, Cat. No. C4706) and 17 mM iodoacetamide (IAA, Sigma, Cat. No. 16125-5G), followed by digestion with trypsin (1:20, enzyme: protein, Thermo Fisher Scientific, Cat. No. 90058) for 16 h shaking at 37° C. […]
(§3) Next, tandem mass tagging (TMT)-based quantitative proteomic profiling was performed to evaluate the degradation specificity of PS-2. […] Quantitative proteomics employing TMT chemical labeling coupled with LC/MS/MS enabled the detection of >2,500 unique proteins without fractionation (FIG. 4f). […]

[3] = target: T2, CSK (Homo sapiens, UniProt P41240); assay: TMT-based quantitative proteomics in Mino cells, CSK; assay type: cell-based; settings: 200 nM, 4 h
T2 construct: host or cells: Mino
Protocol: as §1, §2, §3

[4] = target: T3, BTK (Mus musculus, UniProt P35991); assay: Western blotting for BTK in A20 cells; assay type: cell-based; settings: A20 cells, 40, 200 and 1000 nM, 24 h, Western blot
T3 construct: host or cells: A20
Protocol: (§4) CC-220 is a IKZF1/3 degrader developed by Celgene and used for comparison.
(§5) In contrast, PS-3, whose warhead is further reduced compared with PS-2, loses its ability to function as either a BTK degrader or a potent IKZF1/3 molecular glue. To confirm this observation, BTK degradation induced by PS-1, PS-2, and PS-3 was tested in both a human B lymphocyte cell line Ramos and mouse BALB/c B cell lymphoma line A20, with DD-03-171 from the Gray group as a positive control (FIG. 5).

[5] = target: T4, BTK-Hibit (Homo sapiens, UniProt Q06187); assay: BTK degradation in BTK-Hibit knock-in Ramos cells; assay type: cell-based; settings: 24 hours
T4 construct: endogenous in cells; host or cells: Ramos (BTK-Hibit knock-in)
Protocol: (§6) Ramos cells were treated with the indicated compounds at the indicated concentrations for 24 hours. Nurix and DD-03-171 were used as the controls.
(§7) To further illustrate the BTK degradation ability of PS-2, BTK-Hibit knock-in Ramos cells were treated with PS-2 for 24 hours, using Nurix and DD-03171 as controls (FIG. 6).

[6] = target: T5, BTK-Hibit (Homo sapiens, UniProt Q06187+Q96SW2); assay: BTK degradation in BTK-Hibit knock-in Ramos cells; assay type: cell-based; settings: 24 hours
T5 construct: endogenous in cells; host or cells: Ramos (BTK-Hibit knock-in)
Protocol: as §6, §7

[7] = Mouse S9 metabolic stability assay; assay type: in vitro ADME; settings: co-incubated with mouse liver S9 enzymes, LC-MS; read-out: t1/2 in mouse liver S9
Protocol: To verify the metabolic stability of PS-2, PS-2 was co-incubated with mouse liver S9 enzymes and LC-MS was used to test the remaining amount of PS-2 compound. DD-03-171 was used as a control (FIG. 11).

[8] = test system: Mino cells; assay: cells; settings: Homo sapiens, 72 h, read-out: IC50, cell growth inhibition / cell viability, Mino cells, 72 h
Source text: The cell viabilities were quantified using an Alarma Blue assay.
Dataset represents an average of n=3 replicates.

[9] = target: T6, BTK (Homo sapiens, UniProt Q06187); assay: TMT-based quantitative proteomics in Mino cells, BTK; assay type: cell-based; parameters: host or cells: Mino; settings: 200 nM, 4 h
Protocol: as §1, §2, §3

[10] = target: T6, BTK; assay: Western blotting for BTK in Ramos cells; assay type: cell-based; parameters: host or cells: Ramos; settings: Ramos cells, 40, 200 and 1000 nM, 24 h, Western blot
Protocol: as §4, §5

T6 sequence (Q06187 whole entry): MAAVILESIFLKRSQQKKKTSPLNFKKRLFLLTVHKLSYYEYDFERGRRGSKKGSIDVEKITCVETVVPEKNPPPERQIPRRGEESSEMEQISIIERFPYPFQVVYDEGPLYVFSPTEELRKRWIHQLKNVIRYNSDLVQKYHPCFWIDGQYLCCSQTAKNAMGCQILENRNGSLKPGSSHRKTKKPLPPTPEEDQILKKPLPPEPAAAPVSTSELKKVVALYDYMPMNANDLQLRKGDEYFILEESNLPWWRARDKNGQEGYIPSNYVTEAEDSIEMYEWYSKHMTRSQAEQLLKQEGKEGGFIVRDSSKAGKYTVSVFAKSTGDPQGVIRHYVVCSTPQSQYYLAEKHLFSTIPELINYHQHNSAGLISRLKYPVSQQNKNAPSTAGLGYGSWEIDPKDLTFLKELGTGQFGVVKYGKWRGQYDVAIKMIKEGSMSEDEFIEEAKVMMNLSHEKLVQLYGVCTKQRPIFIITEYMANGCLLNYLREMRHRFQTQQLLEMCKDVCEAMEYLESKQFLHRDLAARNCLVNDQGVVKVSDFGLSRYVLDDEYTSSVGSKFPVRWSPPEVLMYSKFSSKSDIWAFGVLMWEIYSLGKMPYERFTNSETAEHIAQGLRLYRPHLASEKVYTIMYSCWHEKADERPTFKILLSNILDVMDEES
T1 sequence (Q13422 whole entry): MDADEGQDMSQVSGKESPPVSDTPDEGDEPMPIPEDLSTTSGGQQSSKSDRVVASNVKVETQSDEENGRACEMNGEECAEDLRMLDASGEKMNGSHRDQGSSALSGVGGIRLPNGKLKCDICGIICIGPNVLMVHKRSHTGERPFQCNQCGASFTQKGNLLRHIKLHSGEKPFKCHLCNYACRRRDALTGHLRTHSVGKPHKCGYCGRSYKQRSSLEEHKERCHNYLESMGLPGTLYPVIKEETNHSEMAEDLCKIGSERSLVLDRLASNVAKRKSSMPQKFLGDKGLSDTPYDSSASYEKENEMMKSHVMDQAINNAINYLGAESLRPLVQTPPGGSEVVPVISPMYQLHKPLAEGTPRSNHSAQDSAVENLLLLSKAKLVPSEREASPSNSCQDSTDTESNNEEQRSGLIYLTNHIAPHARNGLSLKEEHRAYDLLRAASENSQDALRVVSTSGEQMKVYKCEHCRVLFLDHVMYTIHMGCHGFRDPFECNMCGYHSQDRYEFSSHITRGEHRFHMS
T1 sequence (Q96SW2 whole entry): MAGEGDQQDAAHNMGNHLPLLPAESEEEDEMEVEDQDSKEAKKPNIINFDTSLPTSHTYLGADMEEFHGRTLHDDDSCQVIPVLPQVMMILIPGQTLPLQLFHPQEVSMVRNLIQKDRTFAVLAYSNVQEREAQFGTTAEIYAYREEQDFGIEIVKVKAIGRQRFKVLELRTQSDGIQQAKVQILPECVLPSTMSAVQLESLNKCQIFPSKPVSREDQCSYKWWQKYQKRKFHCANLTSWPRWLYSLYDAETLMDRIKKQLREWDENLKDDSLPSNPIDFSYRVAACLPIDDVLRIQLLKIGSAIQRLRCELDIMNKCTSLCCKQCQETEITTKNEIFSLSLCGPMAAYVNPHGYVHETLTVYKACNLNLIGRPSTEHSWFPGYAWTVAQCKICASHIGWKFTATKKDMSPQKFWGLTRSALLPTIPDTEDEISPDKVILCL
T1 sequence (Q16531 whole entry partner): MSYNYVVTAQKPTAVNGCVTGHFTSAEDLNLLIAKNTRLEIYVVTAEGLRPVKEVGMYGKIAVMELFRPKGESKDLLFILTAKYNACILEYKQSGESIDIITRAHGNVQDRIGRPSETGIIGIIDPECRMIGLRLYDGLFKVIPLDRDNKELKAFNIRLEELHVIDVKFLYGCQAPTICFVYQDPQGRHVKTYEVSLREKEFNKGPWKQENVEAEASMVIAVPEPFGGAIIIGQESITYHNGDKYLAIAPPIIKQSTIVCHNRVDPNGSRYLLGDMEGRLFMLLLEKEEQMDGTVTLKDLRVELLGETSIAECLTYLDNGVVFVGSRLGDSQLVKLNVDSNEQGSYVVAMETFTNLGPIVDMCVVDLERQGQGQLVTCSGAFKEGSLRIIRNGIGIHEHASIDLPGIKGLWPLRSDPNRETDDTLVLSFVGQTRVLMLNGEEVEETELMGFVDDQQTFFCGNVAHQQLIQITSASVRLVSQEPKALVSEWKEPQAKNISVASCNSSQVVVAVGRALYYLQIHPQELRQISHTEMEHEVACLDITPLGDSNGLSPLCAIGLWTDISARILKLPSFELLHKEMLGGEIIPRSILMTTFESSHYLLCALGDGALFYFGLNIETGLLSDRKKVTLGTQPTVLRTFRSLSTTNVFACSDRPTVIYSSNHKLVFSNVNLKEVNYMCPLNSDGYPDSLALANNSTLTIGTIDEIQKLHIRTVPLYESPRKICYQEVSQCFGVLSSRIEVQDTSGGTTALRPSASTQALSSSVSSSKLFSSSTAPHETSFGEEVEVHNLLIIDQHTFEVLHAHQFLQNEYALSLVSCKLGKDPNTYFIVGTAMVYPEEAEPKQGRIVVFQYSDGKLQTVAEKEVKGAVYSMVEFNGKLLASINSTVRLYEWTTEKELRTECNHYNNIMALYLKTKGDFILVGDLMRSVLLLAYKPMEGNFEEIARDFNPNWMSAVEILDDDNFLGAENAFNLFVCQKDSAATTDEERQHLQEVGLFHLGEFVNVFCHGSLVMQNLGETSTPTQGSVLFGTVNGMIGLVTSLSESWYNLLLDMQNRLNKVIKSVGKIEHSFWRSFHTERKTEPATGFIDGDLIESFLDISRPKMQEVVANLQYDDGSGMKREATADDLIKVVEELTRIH
T3 sequence (P35991 whole entry): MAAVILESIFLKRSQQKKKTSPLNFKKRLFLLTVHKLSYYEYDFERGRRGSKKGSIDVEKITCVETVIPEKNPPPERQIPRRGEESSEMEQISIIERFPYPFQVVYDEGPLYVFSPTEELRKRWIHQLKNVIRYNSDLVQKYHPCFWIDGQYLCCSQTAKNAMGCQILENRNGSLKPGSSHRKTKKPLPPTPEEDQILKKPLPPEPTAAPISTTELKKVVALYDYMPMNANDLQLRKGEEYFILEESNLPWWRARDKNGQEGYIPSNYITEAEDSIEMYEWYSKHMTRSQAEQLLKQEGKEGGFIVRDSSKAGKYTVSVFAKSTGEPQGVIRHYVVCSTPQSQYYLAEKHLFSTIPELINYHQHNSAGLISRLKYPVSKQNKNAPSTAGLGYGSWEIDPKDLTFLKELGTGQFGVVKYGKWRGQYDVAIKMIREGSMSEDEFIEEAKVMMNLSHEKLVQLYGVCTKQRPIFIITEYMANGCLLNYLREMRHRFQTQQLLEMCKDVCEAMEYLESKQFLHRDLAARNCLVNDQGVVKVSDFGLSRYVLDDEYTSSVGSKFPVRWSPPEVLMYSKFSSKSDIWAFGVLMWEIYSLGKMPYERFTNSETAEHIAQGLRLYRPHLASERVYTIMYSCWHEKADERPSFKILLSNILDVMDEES
T5 sequence (Q06187 2-659 limits assumed): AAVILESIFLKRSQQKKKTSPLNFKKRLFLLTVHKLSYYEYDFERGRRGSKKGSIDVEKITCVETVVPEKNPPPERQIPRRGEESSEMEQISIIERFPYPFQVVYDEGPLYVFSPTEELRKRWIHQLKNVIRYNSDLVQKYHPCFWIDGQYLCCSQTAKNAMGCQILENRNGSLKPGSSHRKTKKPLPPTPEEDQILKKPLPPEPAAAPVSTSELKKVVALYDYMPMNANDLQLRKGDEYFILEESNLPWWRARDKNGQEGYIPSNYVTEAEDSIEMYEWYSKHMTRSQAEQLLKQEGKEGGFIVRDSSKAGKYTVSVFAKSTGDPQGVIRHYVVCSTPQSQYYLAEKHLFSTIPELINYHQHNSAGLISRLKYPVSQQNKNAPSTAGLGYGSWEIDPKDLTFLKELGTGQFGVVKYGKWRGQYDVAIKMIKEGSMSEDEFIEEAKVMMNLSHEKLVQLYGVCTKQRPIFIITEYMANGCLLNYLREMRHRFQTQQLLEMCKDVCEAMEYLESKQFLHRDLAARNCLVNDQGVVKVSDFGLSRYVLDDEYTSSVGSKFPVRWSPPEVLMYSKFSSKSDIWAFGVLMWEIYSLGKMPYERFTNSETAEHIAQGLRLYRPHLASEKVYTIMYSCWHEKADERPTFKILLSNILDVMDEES
T5 sequence (Q96SW2 whole entry): as the sequence (Q96SW2 whole entry) above
T5 sequence (Q16531 whole entry partner): as the sequence (Q16531 whole entry partner) above
T4 sequence (Q06187 2-659 limits assumed): as the sequence (Q06187 2-659 limits assumed) above
T4 sequence (Q96SW2 whole entry, further chain): as the sequence (Q96SW2 whole entry) above
T4 sequence (Q16531 whole entry partner): as the sequence (Q16531 whole entry partner) above
T2 sequence (P41240 whole entry): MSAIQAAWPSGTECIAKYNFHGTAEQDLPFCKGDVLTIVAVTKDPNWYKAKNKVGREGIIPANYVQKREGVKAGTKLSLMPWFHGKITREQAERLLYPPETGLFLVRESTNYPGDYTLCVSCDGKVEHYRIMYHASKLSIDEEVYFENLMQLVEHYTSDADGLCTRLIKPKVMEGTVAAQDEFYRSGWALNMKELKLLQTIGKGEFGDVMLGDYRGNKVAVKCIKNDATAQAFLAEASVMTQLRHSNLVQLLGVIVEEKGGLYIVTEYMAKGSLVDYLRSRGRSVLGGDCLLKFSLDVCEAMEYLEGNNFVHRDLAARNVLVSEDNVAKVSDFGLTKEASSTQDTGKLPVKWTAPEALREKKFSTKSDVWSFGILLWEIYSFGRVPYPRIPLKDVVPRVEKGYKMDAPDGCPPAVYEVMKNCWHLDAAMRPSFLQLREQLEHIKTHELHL

## O=C1CCC(N2C(=O)c3cccc(NCC(=O)N4CCN(c5ccc(Nc6nccc(Oc7ccccc7)n6)cc5)CC4)c3C2=O)C(=O)N1 (stereo not shown) [PS-2, 2-(2,6-Dioxopiperidin-3-yl)-4-((2-oxo-2-(4-(4-((4-phenoxypyrimidin-2-yl)amino)phenyl)piperazin-1-yl)ethyl)amino)isoindoline-1,3-dione]
[1]
  DC50: 28 nM
[2]
  degradation of IKZF1: ~50%
[3]
  CSK protein level change: downregulated
[4]
  BTK degradation (result in words): potent BTK degradation
[5]
  DC50: 3.75 nM
[6]
  Dmax: 84.7%
[7]
  half-life: ~20 min
[8]
  IC50: 77 nM
[9]
  BTK protein level change: downregulated
[10]
  BTK degradation (result in words): potent BTK degradation
